Where two headings read alike, the source gives them in different places. *1 amine or outer side, *2 acyl side, *3 side chain or, on linkers, in order; H or OH if unused. Where a SMILES comes first, the peptide text is derived from it. Side-chain parts run from the residue outwards. [ ]: non-standard residue; d: D form. The star is where a group is joined. C20 diacid = O=C(O)CCCCCCCCCCCCCCCCCCC(=O)*; C18 diacid = O=C(O)CCCCCCCCCCCCCCCCC(=O)*; γGlu = O=C(O)[C@H](CCC(=O)[*:2])N[*:1]; AEEA = NCCOCCOCC(=O)O; Aib = CC(C)(N)C(=O)O
What was measured:
[1] = molecular target: T1, human GIP R (Homo sapiens, UniProt P48546); assay: Human GIP receptor (GIP R) activity assay, cAMP induction (AlphaScreen) in HEK293 cells; assay type: cell-based; conditions: read-out: hGIP-R cAMP EC50 average value
T1 construct: expressed in transfected cells
T1 sequence (P48546 22-466): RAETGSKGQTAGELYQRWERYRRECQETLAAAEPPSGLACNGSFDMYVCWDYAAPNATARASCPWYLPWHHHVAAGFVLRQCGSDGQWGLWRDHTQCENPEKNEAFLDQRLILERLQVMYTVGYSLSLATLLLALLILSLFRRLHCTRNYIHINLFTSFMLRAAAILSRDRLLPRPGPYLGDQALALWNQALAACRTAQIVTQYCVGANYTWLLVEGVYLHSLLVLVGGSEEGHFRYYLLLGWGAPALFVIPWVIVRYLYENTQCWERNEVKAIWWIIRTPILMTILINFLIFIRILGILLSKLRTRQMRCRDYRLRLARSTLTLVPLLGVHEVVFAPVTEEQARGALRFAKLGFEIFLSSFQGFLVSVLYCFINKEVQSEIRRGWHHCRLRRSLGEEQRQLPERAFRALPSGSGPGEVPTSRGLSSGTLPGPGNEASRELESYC
Experimental: (§1) Human GIP Receptor (GIP R) and GLP-1 Receptor (GLP-1 R) Activity Assay
(§2) In vitro effects of peptide conjugates of the invention were assessed by measuring the induction of cAMP following stimulation of the respective receptor by GIP, GLP1 or analogues of these, as outlined in the invention, using the AlphaSceen® cAMP kit from Perkin-Elmer according to instructions. Briefly, HEK293 cells expressing the human GIP R or GLP-1 R (stable cell lines generated through transfection of the cDNA for human GIP R or GLP-1 and selection of stable clones) were seeded at 30,000 cells/well in 96-well microtiter plates coated with 0.01% poly-L-lysine, and grown for 1 day in culture in 200 μl growth medium (DMEM, 10% FCS, Penicillin (100 IU/ml), Streptomycin (100 μg/ml)). On the day of analysis, growth medium was removed and the cells were washed once with […] Tyrode's buffer (Tyrode's Salts (9.6 g/l), 10 mM HEPES, pH 7.4). […] The Assay buffer was removed and cells are lysed in 80 μl Lysis buffer (0.1% w/v BSA, 5 mM HEPES, 0.3% v/v Tween-20) per well. From each well 10 μl lysed cells was transferred to a 384-well plate and mixed with 15 μl bead-mix (1 Unit/15 μl anti-cAMP Acceptor Beads, 1 Unit/15 μl Donor Beads, and 1 Unit/15 μl Biotinylated cAMP in Assay Buffer). The plates were mixed and incubated in the dark for an hour at room temperature before measuring using an Envision™ plate reader (Perkin-Elmer).
(§3) The resulting cAMP curves were plotted as absolute cAMP concentrations (nM) over log (test compound concentration) and analyzed using the curve fitting program XLfit.
(§4) Parameters calculated to describe both the potency as well as the agonistic activity of each test compound on the receptors were:
(§5) EC50, a concentration resulting in a half-maximal elevation of cAMP levels, reflecting the potency of the test compound.

[2] = molecular target: T2, human GLP-1 R (Homo sapiens, UniProt P43220); assay: Human GLP-1 receptor (GLP-1 R) activity assay, cAMP induction (AlphaScreen) in HEK293 cells; assay type: cell-based
T2 construct: expressed in transfected cells
T2 sequence (P43220 24-463): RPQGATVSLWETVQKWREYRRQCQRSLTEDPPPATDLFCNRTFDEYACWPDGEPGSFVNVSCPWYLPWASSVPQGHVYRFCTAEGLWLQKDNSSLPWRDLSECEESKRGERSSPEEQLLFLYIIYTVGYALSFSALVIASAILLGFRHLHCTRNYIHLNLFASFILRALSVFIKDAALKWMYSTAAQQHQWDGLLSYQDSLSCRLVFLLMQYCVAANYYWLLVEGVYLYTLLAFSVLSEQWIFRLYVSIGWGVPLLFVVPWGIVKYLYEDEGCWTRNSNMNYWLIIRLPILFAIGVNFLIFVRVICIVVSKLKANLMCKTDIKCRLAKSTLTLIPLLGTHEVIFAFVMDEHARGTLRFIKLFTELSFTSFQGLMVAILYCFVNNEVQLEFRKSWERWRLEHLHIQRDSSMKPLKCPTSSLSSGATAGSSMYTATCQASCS
Experimental: as §1, §2, §3, §4, §5

[3] = Table 3, most comprehensive data
[4] = Table 3, most comprehensive data, read-out: hGLP-1-R cAMP EC50 average value
[5] = Table 2, HEK293 cells expressing human GIP R
[6] = Table 2a, secondary assay study
[7] = Table 2, HEK293 cells expressing human GLP-1 R, read-out: hGLP1-R cAMP EC50 average value
[8] = Table 2a, secondary assay study, read-out: hGLP1-R cAMP EC50 average value

| Structure (SMILES) | EC50 [1, 3] [nM] | EC50 [2, 4] [nM] | EC50 [1, 5] [nM] | EC50 [1, 6] [nM] | EC50 [2, 7] [nM] | EC50 [2, 8] [nM] |
| --- | --- | --- | --- | --- | --- | --- |
| CC[C@H](C)[C@H](NC(=O)[C@H](CO)NC(=O)[C@H](Cc1ccc(O)cc1)NC(=O)[C@H](CC(=O)O)NC(=O)[C@H](CO)NC(=O)[C@@H](NC(=O)[C@H](Cc1ccccc1)NC(=O)[C@@H](NC(=O)CNC(=O)[C@H](CCC(=O)O)NC(=O)C(C)(C)NC(=O)[C@@H](N)Cc1ccc(O)cc1)[C@@H](C)O)[C@@H](C)O)C(=O)N[C@@H](C)C(=O)N[C@@H](CC(C)C)C(=O)N[C@@H](CC(=O)O)C(=O)N[C@@H](CCCCN)C(=O)N[C@@H](CCCCNC(=O)COCCOCCNC(=O)COCCOCCNC(=O)CC[C@H](NC(=O)CCCCCCCCCCCCCCCCCCC(=O)O)C(=O)O)C(=O)N[C@@H](C)C(=O)N[C@@H](CCC(N)=O)C(=O)N[C@@H](CCCNC(=N)N)C(=O)N[C@@H](C)C(=O)N[C@@H](Cc1ccccc1)C(=O)N[C@H](C(=O)N[C@@H](CCC(=O)O)C(=O)N[C@@H](Cc1c[nH]c2ccccc12)C(=O)N[C@@H](CC(C)C)C(=O)N[C@@H](CC(C)C)C(=O)N[C@@H](C)C(=O)N[C@@H](CCC(=O)O)C(=O)N1CCC[C@H]1C(=O)N[C@@H](CO)C(=O)N[C@@H](CO)C(=O)NCC(=O)N[C@@H](C)C(=O)N1CCC[C@H]1C(=O)N1CCC[C@H]1C(=O)N1CCC[C@H]1C(=O)N[C@@H](CO)C(N)=O)C(C)C [Compound 56] (H-Y[Aib]EGTFTSDYSIALDKK([AEEA-AEEA-γGlu-C20 diacid])AQRAFVEWLLAEPSSGAPPPS-NH2) | 0.025 | 0.033 | – | – | – | – |
| CC[C@H](C)[C@H](NC(=O)[C@H](CO)NC(=O)[C@H](Cc1ccc(O)cc1)NC(=O)[C@H](CC(=O)O)NC(=O)[C@H](CO)NC(=O)[C@@H](NC(=O)[C@H](Cc1ccccc1)NC(=O)[C@@H](NC(=O)CNC(=O)[C@H](CCC(=O)O)NC(=O)C(C)(C)NC(=O)[C@@H](N)Cc1ccc(O)cc1)[C@@H](C)O)[C@@H](C)O)C(=O)N[C@@H](C)C(=O)N[C@@H](CC(C)C)C(=O)N[C@@H](CC(=O)O)C(=O)N[C@@H](CCCCN)C(=O)N[C@@H](CCCCNC(=O)COCCOCCNC(=O)COCCOCCNC(=O)CC[C@H](NC(=O)CCCCCCCCCCCCCCCCCCC(=O)O)C(=O)O)C(=O)N[C@@H](C)C(=O)N[C@@H](C)C(=O)N[C@@H](CCCCN)C(=O)N[C@@H](CCC(=O)O)C(=O)N[C@@H](Cc1ccccc1)C(=O)N[C@H](C(=O)N[C@@H](CCC(=O)O)C(=O)N[C@@H](Cc1c[nH]c2ccccc12)C(=O)N[C@@H](CC(C)C)C(=O)N[C@@H](CC(C)C)C(=O)N[C@@H](CO)C(=O)N[C@@H](C)C(=O)NCC(=O)N1CCC[C@H]1C(=O)N[C@@H](CO)C(=O)N[C@@H](CO)C(=O)NCC(=O)N[C@@H](C)C(=O)N1CCC[C@H]1C(=O)N1CCC[C@H]1C(=O)N1CCC[C@H]1C(=O)N[C@@H](CO)C(N)=O)C(C)C [Compound 41] (H-Y[Aib]EGTFTSDYSIALDKK([AEEA-AEEA-γGlu-C20 diacid])AAKEFVEWLLSAGPSSGAPPPS-NH2) | 0.015 | 0.038 | – | – | – | – |
| CC[C@H](C)[C@H](NC(=O)[C@H](CO)NC(=O)[C@H](Cc1ccc(O)cc1)NC(=O)[C@H](CC(=O)O)NC(=O)[C@H](CO)NC(=O)[C@@H](NC(=O)[C@H](Cc1ccccc1)NC(=O)[C@@H](NC(=O)CNC(=O)[C@H](CCC(=O)O)NC(=O)C(C)(C)NC(=O)[C@@H](N)Cc1ccc(O)cc1)[C@@H](C)O)[C@@H](C)O)C(=O)N[C@@H](C)C(=O)N[C@@H](CC(C)C)C(=O)N[C@@H](CC(=O)O)C(=O)N[C@@H](CCCCN)C(=O)N[C@@H](CCCCNC(=O)COCCOCCNC(=O)COCCOCCNC(=O)CC[C@H](NC(=O)CCCCCCCCCCCCCCCCC(=O)O)C(=O)O)C(=O)N[C@@H](C)C(=O)N[C@@H](CCC(N)=O)C(=O)N[C@@H](CCCNC(=N)N)C(=O)N[C@@H](C)C(=O)N[C@@H](Cc1ccccc1)C(=O)N[C@H](C(=O)N[C@@H](CCC(=O)O)C(=O)N[C@@H](Cc1c[nH]c2ccccc12)C(=O)N[C@@H](CC(C)C)C(=O)N[C@@H](CC(C)C)C(=O)N[C@@H](C)C(=O)N[C@@H](CCC(N)=O)C(=O)NCC(=O)N1CCC[C@H]1C(=O)N[C@@H](CO)C(=O)N[C@@H](CO)C(=O)NCC(=O)N[C@@H](C)C(=O)N1CCC[C@H]1C(=O)N1CCC[C@H]1C(=O)N1CCC[C@H]1C(=O)N[C@@H](CO)C(N)=O)C(C)C [Compound 51] (H-Y[Aib]EGTFTSDYSIALDKK([AEEA-AEEA-γGlu-C18 diacid])AQRAFVEWLLAQGPSSGAPPPS-NH2) | 0.005 | 0.017 | – | – | – | – |
| CC[C@H](C)[C@H](NC(=O)[C@H](CO)NC(=O)[C@H](Cc1ccc(O)cc1)NC(=O)[C@H](CC(=O)O)NC(=O)[C@H](CO)NC(=O)[C@@H](NC(=O)[C@H](Cc1ccccc1)NC(=O)[C@@H](NC(=O)CNC(=O)[C@H](CCC(=O)O)NC(=O)C(C)(C)NC(=O)[C@@H](N)Cc1ccc(O)cc1)[C@@H](C)O)[C@@H](C)O)C(=O)N[C@@H](Cc1ccc(O)cc1)C(=O)N[C@@H](CC(C)C)C(=O)N[C@@H](CC(=O)O)C(=O)N[C@@H](CCCCN)C(=O)N[C@@H](CCCCNC(=O)COCCOCCNC(=O)COCCOCCNC(=O)CC[C@H](NC(=O)CCCCCCCCCCCCCCCCC(=O)O)C(=O)O)C(=O)N[C@@H](C)C(=O)N[C@@H](CCC(N)=O)C(=O)N[C@@H](CCCNC(=N)N)C(=O)N[C@@H](C)C(=O)N[C@@H](Cc1ccccc1)C(=O)N[C@H](C(=O)N[C@@H](CC(N)=O)C(=O)N[C@@H](Cc1c[nH]c2ccccc12)C(=O)N[C@@H](CC(C)C)C(=O)N[C@@H](CC(C)C)C(=O)N[C@@H](C)C(=O)NC(C)(C)C(=O)N[C@@H](CCCCN)C(N)=O)C(C)C [Compound 12] (H-Y[Aib]EGTFTSDYSIYLDKK([AEEA-AEEA-γGlu-C18 diacid])AQRAFVNWLLA[Aib]K-NH2) | – | – | 0.011 | 0.012 | 0.016 | 0.017 |
| CC[C@H](C)[C@H](NC(=O)[C@H](CO)NC(=O)[C@H](Cc1ccc(O)cc1)NC(=O)[C@H](CC(=O)O)NC(=O)[C@H](CO)NC(=O)[C@@H](NC(=O)[C@H](Cc1ccccc1)NC(=O)[C@@H](NC(=O)CNC(=O)[C@H](CCC(=O)O)NC(=O)C(C)(C)NC(=O)[C@@H](N)Cc1ccc(O)cc1)[C@@H](C)O)[C@@H](C)O)C(=O)N[C@@H](Cc1ccc(O)cc1)C(=O)N[C@@H](CC(C)C)C(=O)N[C@@H](CCC(=O)O)C(=O)N[C@@H](CCCCN)C(=O)N[C@@H](CCCCNC(=O)COCCOCCNC(=O)COCCOCCNC(=O)CC[C@H](NC(=O)CCCCCCCCCCCCCCCCC(=O)O)C(=O)O)C(=O)N[C@@H](C)C(=O)N[C@@H](C)C(=O)N[C@@H](CCCCN)C(=O)N[C@@H](CCC(=O)O)C(=O)N[C@@H](Cc1ccccc1)C(=O)N[C@H](C(=O)N[C@@H](CCC(=O)O)C(=O)N[C@@H](Cc1c[nH]c2ccccc12)C(=O)N[C@@H](CC(C)C)C(=O)N[C@@H](CC(C)C)C(=O)N[C@@H](CO)C(=O)N[C@@H](C)C(=O)NCC(=O)N1CCC[C@H]1C(=O)N[C@@H](CO)C(=O)N[C@@H](CO)C(=O)NCC(=O)N[C@@H](C)C(=O)N1CCC[C@H]1C(=O)N1CCC[C@H]1C(=O)N1CCC[C@H]1C(=O)N[C@@H](CO)C(N)=O)C(C)C [Compound 10] (H-Y[Aib]EGTFTSDYSIYLEKK([AEEA-AEEA-γGlu-C18 diacid])AAKEFVEWLLSAGPSSGAPPPS-NH2) | – | – | 0.016 | 0.016 | 0.028 | 0.029 |

Reference: patent publication US10093713B2, “GIP-GLP-1 dual agonist compounds and methods” (priority 2013, dated 2018)
